Results on eleven compounds are retold here after patent US7238659B2, “Reducing axon degeneration with proteasome inhibitors” (Children's Medical Center Corporation, priority 2003, dated 2007).

Square brackets hold non-standard residues; d marks the D form. Peptide text beside a SMILES is read from it. * marks the point of attachment. Sta = CC(C)C[C@H](N)[C@@H](O)CC(=O)O; Isovaleryl = CC(C)CC(=O)*; Nle = CCCC[C@H](N)C(=O)O; Nva = CCC[C@H](N)C(=O)O; Cbz = O=C(OCc1ccccc1)*; CH2F = FC*

Test [1] has as its system corticospinal tract (CST) after midthoracic spinal cord transection with human Schwann cell grafts. As to the kind of experiment: Corticospinal Tract (CST) Regeneration Assay. Format: in vivo, adult nude rat. Also on record: key: dramatically reduce (+++ or ++++) axonal degeneration; dramatically reduce (+++ or ++++) axonal degeneration. As to conditions: inhibitor in fibrin glue; thirty-five days after grafting. Here is the method:
Corticospinal Tract (CST) Regeneration Assay. Proteasome inhibitors are assayed for their ability to improve corticospinal tract (CST) regeneration following thoracic spinal cord injury by promoting CST regeneration into human Schwann cell grafts in the methods of Guest et al. (1997, supra). […] Inhibitors are incorporated into a fibrin glue and placed in the same region. Anterograde tracing from the motor cortex using the dextran amine tracers, Fluororuby (FR) and biotinylated dextran amine (BDA), are performed. Thirty-five days after grafting, the CST response is evaluated qualitatively by looking for reduced degeneration of CST fibers in or beyond grafts and quantitatively by constructing camera lucida composites to determine the sprouting index (SI), the position of the maximum termination density (MTD) rostral to the GFAP-defined host/graft interface, and the longitudinal spread (LS) of bulbous end terminals. The latter two measures provide information about axonal die-back.

For test [2], the system named is microtubules and neurofilaments of transected axons. As to the kind of experiment: Breakdown of axonal cytoskeleton (microtubules, neurofilaments) in transected axons, immunostaining and Western blotting. Type of test: cell-based, rat. An excerpt: Microtubule destabilization at the initiation stage of Wallerian degeneration in vitro. We next examined which cellular events might correlate with the involvement of UPS and calpains in Wallerian degeneration. We monitored the integrity of different subcellular organelles in the transected axons by both immunocytochemistry and membrane labeling. […] At the protein level, we observed a corresponding cleavage of the neurofilament subunits, neurofilament 160 (NF-160) and neurofilament 68 (NF68) as detected by Western blotting.
Apart from these axonal markers, however, the earliest detectable change appears to occur in the microtubules of transected axons. […] After 12 hr post-axotomy, the stained signals of fragmented microtubule structures weakened gradually and were replaced by many spheroid bodies in severed axons. By 16 hr after axotomy, almost all of the detected signals were spheroid bodies along the tracts of original axons. Even 16 hrs after axotomy when the majority of the axonal NF160 and NF68 has been degraded, most of the tubulin proteins still remained intact and the protein level remained stable according to Western blotting. To provide additional biochemical evidence for such an axotomy-elicited microtubule destabilization in transected axons at early stages of Wallerian degeneration, we separated monomeric (soluble, S) and polymerized (pellet, P) tubulins from transected axons and measured the depolymerization ratio (S/[S+P]) at different time points.
UPS and calpains mediate the breakdown of axonal cytoskeleton components. To explore the link between these cellular and molecular changes during Wallerian degeneration, we next examined whether proteasome inhibitors, calpain inhibitors, and EGTA affect neurofilaments and microtubules in transected axons. […] On the other hand, ALLN only delayed neurofilament degradation, but not the fragmentation of microtubules.
Background: Immunoblotting shows a protein as a band on a membrane.

Test [3] relates to transected axons from cultured sympathetic neurons. Kind of test: Wallerian degeneration of transected axons in cultured sympathetic ganglia. Format: cell-based, rat. As to conditions: for protective effect on Wallerian degeneration: added to sympathetic cultures prior to axotomy, EGTA 2 mM. On the set-up: development of the axonal beading appearance / disintegration of transected axons into debris: dose or concentration left out as unconfirmed. An excerpt: Inhibiting the ubiquitin-proteasome pathway delays Wallerian degeneration. Wallerian degeneration in most transected mammalian nerve fibers is a complex sequence that entails degradation of the axon, changes in the ensheathing and glial cells, alterations in the blood-tissue barriers, and responses of macrophage-lineage cells (reviewed by Griffin et al., 1995). To study the underlying mechanisms involved in the axon degeneration process, we have used the degeneration of transected axons from cultured primary neurons as models (Buckmaster et al., 1995; George et al., 1995; Wang et al., 2001). In cultured sympathetic ganglia derived from postnatal day 3 (p3) rats, soma-deprived axons undergo a typical degenerative process (herein, George et al., 1995; Wang et al., 2001). The severed axons first appear normal for 6-10 hr, depending upon the duration of culturing prior to axotomy. For sympathetic ganglia that have been cultured for 5 days, the severed axons begin to develop such signs of early degeneration as focal swelling and beading approximately 8 hrs after the axons had been separated from their cell bodies. In most cases, the axons would be completely degenerated and detached after 12-16 hr post-axotomy. Similar degenerative processes were also observed in other types of cultured neurons, such as chicken dorsal root ganglion neurons and retinal ganglion cells.
We examined whether UPS is involved in axotomy-triggered Wallerian degeneration by using specific pharmacological inhibitors. It is known that for UPS to degrade a specific substrate protein, the sequential action of three enzymes, including a ubiquitin activating enzyme (E1), a ubiquitin conjugating enzyme (E2), and a ubiquitin ligase (E3), is required to covalently link ubiquitin to the substrate. Poly-ubiquitinated proteins are then targeted for degradation by the 26S proteasome, which is composed of two 19S proteasome regulatory particles and a 20S core. Substrate ubiquitination may also be reversed by ubiquitin proteases (reviewed by Weissman, 2001). In spite of the existence of multiple E2 and E3 molecules, the final and common step in degrading polyubiquitinated protein substrates is through the 26S proteasome machinery. Consistent with previous evidence for the existence and functioning of the UPS in axons (Campbell and Holt, 2001, 2003), components of UPS machinery, such as subunit C2 of the proteasome 20S, were found in both intact and transected axons from sympathetic neurons. Thus, to perturb UPS activity we used two mechanistically different proteasome inhibitors, MG132, a peptide-based reversible proteasome inhibitor (Rock et al., 1994), and lactacystin, a […] irreversible proteasome inhibitor (Fenteany et al., 1995), both of which had been extensively used to inhibit UPS activity in many different cell types including cultured neurons (Campbell and Holt, 2001, 2003).
24 hr post-axotomy when most of the axon debris has detached from the culture surface in control cultures, proteasome inhibitor-treated explants still retained many axons with some degeneration signs, which remained up to 36 hr post-axotomy.
8 hr post-axotomy, approximately 90% of axons from control HSV-infected explants, and only about 40% of axons from HSV-UBP2-infected ones, developed a beading appearance. However, the protective effects of UBP2 overexpression were less robust than those of the proteasome inhibitors, presumably due to the low expression levels of UBP2.
As previous studies have implicated calpains, a class of calcium-dependent proteases, in Wallerian degeneration (George et al., 1995; Finn et al., 2000), we also examined the contribution of calpain activity in our assays with specific calpain inhibitors such as ALLN (Finn et al., 2000). […] 16 hr after axotomy when most of the transected axons from control cultures degenerated into debris, there were still remaining axon fibers in ALLN-treated cultures.

Test [4] deals with axons of cultured neurons. Kind of test: Axon degeneration elicited by calcium ionophore A23187 or ionomycin. Format: cell-based.
Test [5] has as its system axons of cultured neurons. Kind of test: Induction of axon degeneration by cytoskeleton-disrupting agent. Type of test: cell-based. An excerpt:
Thus, among the three major polymer components of the axon cytoskeleton, microtubules play a particularly important role in maintaining the integrity of axons. Consistent is the observation of microtubule disruption as the earliest detectable change during the physiological process of axon pruning in Drosophila metamorphosis (Watts et al., 2003).

For test [6], the system named is NGF-deprived sympathetic neurons. As to the kind of experiment: Neurite degeneration in NGF-deprived sympathetic neurons. Format: cell-based. To be noted: 36 hr after NGF deprivation. An excerpt: Proteasome inhibitors also delay neurite degeneration in NGF-deprived sympathetic neurons. In addition to transected axons, axons from neurons that have been deprived of their physiological trophic factors may also undergo a Wallerian-like degeneration process (reviewed by Raff et al., 2002). If the distal part of an axon of a cultured sympathetic neuron is locally deprived of NGF, that part of the axon degenerates while the rest of the cell and axon survives (Campenot, 1982). Moreover, it has been shown that such an NGF deprivation-triggered axon degeneration is delayed in the sympathetic neurons from Wld^s mice (Deckwerth and Johnson, 1994). We thus decided to investigate whether UPS is also involved in NGF deprivation-triggered axon degeneration. Consistent with previous studies (for example, Deckwerth and Johnson, 1994), 36 hr after NGF deprivation, all of the cultured sympathetic neurons underwent a typical apoptosis program with death of cell bodies as detected by nuclei staining with Hoechst 33258 (a few normally stained nuclei are glial cells) and degeneration of axons as indicated by both morphological criteria and immunostaining.

For the compound `CCCC[C@@H](C=O)NC(=O)[C@H](CC(C)C)NC(=O)[C@H](CC(C)C)NC(C)=O` [MG-101, Ac-Leu-Leu-Nle-CHO] (Ac-Leu-Leu-[Nle]-aldehyde), the “Reduce Degeneration” value in test [1] is on record as “+++”. Moreover, in test [2] (Western blotting), the “calpain-dependent degradation of neurofilaments NF160 and NF68” value is “completely prevented”. Moreover, the neurofilament degradation entry in test [2] (transected axons) is reported as “only delayed”. Further, in test [3], the “development of the axonal beading appearance” value was “did not affect”. Further, the “disintegration of transected axons into debris” value in test [3] (16 hr after axotomy) is on record as “slightly delayed”.
Turning to `CC(=O)N[C@@H](CSC(=O)[C@]1([C@@H](O)C(C)C)NC(=O)[C@H](C)[C@@H]1O)C(=O)O` [Lactacystin], in test [1], the “Reduce Degeneration” value was “+++”. In addition, the “degeneration of all examined subcellular markers (destabilization of microtubules and cleavage of neurofilaments)” value in test [2] (transected axons) is on record as “profoundly retarded”. In addition, the “time post-axotomy until degeneration is shown” value in test [3] (untreated transected axons: early signs 8 hr post-axotomy) was 16 h.
As for `CCC[C@@H](C=O)NC(=O)[C@H](CC(C)C)NC(=O)[C@H](CC(C)C)NC(=O)OCc1ccccc1` [MG-115, Carbobenzoxy-L-leucyl-L-leucyl-L-norvalinal] (Cbz-Leu-Leu-[Nva]-aldehyde), in test [1], the “Reduce Degeneration” value is reported as “++++”.
For `CC(C)CC(=O)N[C@H](C(=O)N[C@H](C(=O)N[C@@H](CC(C)C)[C@@H](O)CC(=O)N[C@@H](C)C(=O)N[C@@H](CC(C)C)[C@@H](O)CC(=O)O)C(C)C)C(C)C` [pepstatin.A] (Isovaleryl-VV[Sta]A[Sta]-OH), in test [3], the “protective effect on Wallerian degeneration” value (shortened to “protective effect”) is “did not result in any detectable protective effect”.
In the case of `CC(C)C(O)C12NC(=O)C(C)(C)C1OC2=O` (stereo not drawn) [α-Methylomuralide, α-Methyl clasto-Lactacystin β-Lactone], in test [1], the “Reduce Degeneration” value was “++++”.
Turning to `O=C(O)CN(CCOCCOCCN(CC(=O)O)CC(=O)O)CC(=O)O` [EGTA], the “axon degeneration elicited by calcium ionophore A23187 or ionomycin” value in test [4] is given as “blocked”. In test [2] (transected axons), the “degeneration of all examined subcellular markers (destabilization of microtubules and cleavage of neurofilaments)” value is “profoundly retarded”. Also, the “protective effect” value in test [3] is listed as “much stronger protective effect”.
Regarding `C/C1=C/C(=O)O[C@@H]2C[C@@H](CC[C@H](C)/C=C\CC1)O[C@@](O)([C@@H]1CSC(=O)N1)C2` [latrunculin B], the “induction of axon degeneration” value in test [5] was “failed to induce axon degeneration”.
As to `CC(C)C[C@H](NC(=O)[C@H](Cc1ccccc1)NC(=O)c1cnccn1)B(O)O` [PS-341, bortezomib], the “Reduce Degeneration” value in test [1] was “++++”.
For `CC(C)[C@H](O)[C@@]12NC(=O)[C@H](C)[C@@H]1OC2=O` [PS-519, clasto-Lactacystin β-Lactone], the “Reduce Degeneration” value in test [1] is reported as “++++”.
Regarding `COC(=O)C[C@H](NC(=O)[C@H](C)NC(=O)[C@@H](NC(=O)OCc1ccccc1)C(C)C)C(=O)CF` [Z-VAD-fmk] (Cbz-Val-Ala-Asp(OMe)-CH2F), the “axon (neurite) degeneration after NGF deprivation” value in test [6] is recorded as “efficiently prevented”. Besides, in test [6] (Hoechst 33258 nuclei staining), the “death of cell bodies after NGF deprivation” value is reported as “efficiently prevented”. The “protective effect” value in test [3] is “did not result in any detectable protective effect”.
Regarding `CC(C)C[C@H](NC(=O)[C@H](CC(C)C)NC(=O)[C@H](CC(C)C)NC(=O)OCc1ccccc1)B(O)O` [MG-262, Z-Leu-Leu-Leu-B(OH)2], in test [1], the “Reduce Degeneration” value is “+++”.
